# Measured values taken from patent US7417144B2, “Factor Xa inhibitors” (Hoffman-La Roche Inc., priority 2005, dated 2008).
# Target: T1, human factor Xa (Homo sapiens, UniProt P00742)
# T1 construct: purchased Enzyme Research Laboratories
# Experiment: Factor Xa chromogenic peptide substrate (S-2222) assay
# Format: biochemical
# Conditions: apparent Ki from IC50 by Cheng-Prusoff; enzyme 3 nM, substrate S-2222, pH 7.8, room temperature
# Description: Factor Xa activity was measured spectrophotometrically in microtiter plates in a final volume of 150 μl using the following conditions: Inhibition of human factor Xa (Enzyme Research Laboratories) was tested at an enzyme concentration of 3 nM using the chromogenic substrate S-2222 (Chromogenix AB, Mölndal, Sweden) at […]. The reaction kinetics of the enzyme and the substrate were linear with both time and the enzyme concentration. The inhibitors were dissolved in DMSO and tested at various concentrations up to 100 μM. The inhibitors were diluted using HNPT buffer consisting of HEPES 100 mM, NaCl 140 mM, PEG 6000 0.1% and Tween 80 0.02%, pH 7.8. The cleavage of S-2222 by human factor Xa was followed at 405 nm for 5 minutes at room temperature. The velocity of the reaction was determined by the autoreader from the slope of the linear regression fit to 7 time points (1 minute). The initial velocity for each inhibitor concentration was determined by the slope of at least 4 time points in the linear phase by a linear regression fit […]. Apparent dissociation constants Ki were calculated according to Cheng and Prusoff [Cheng, Y. C.; Prusoff, W. H. Relationship between the inhibition constant (Ki) and the concentration of the inhibitor that causes 50 percent inhibition (IC50) of an enzyme reaction. Biochem. Pharmacol. 1973, 22, 3099-3108.] based on the IC50 and the respective Km, determined previously (Ki=IC50/(1+S/Km)). The Km for the substrate used was determined under the conditions of the test with at least 5 substrate concentrations ranging from 0.5 to 15 times Km. [Lottenberg R, Hall J A, Blinder M, Binder E P, Jackson C M., The action of thrombin on peptide p-nitroanilide substrates. Substrate selectivity and examination of hydrolysis under different reaction conditions. Biochim Biophys Acta. 1983 Feb. 15; 742(3):539-57]. According to Eadie [Eadie G.S. The inhibition of cholinesterase by physostigmine and prostigmine. J. Biol. Chem. 1942, 146, 85-93.], the Km for S-2222 amounted to 613 μM.
# T1 sequence (P00742 235-488 limits assumed): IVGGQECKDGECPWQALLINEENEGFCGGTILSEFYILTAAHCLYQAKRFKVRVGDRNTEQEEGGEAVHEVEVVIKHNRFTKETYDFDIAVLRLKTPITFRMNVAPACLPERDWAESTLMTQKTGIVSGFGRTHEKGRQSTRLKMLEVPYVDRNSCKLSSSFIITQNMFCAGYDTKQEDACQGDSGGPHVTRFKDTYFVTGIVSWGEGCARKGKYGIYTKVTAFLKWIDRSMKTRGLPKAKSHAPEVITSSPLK
# T1 sequence (P00742 41-179 partner limits assumed): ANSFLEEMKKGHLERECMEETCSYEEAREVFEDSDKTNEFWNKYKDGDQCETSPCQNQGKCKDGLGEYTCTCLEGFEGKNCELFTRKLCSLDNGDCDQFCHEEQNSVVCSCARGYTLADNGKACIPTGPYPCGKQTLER
row,SMILES,Ki
1,"Cn1ncc2c1CN(C(=O)Nc1ccc(Cl)cn1)[C@H]2C(=O)Nc1ccc(-n2ccccc2=O)cc1F [Example 3, (R)-1-Methyl-4,6-dihydro-1H-pyrrolo[3,4-c]pyrazole-4,5-dicarboxylic acid 5-[(5-chloro-pyridin-2-yl)-amide]4-{[2-fluoro-4-(2-oxo-2H-pyridin-1-yl)-phenyl]-amide}]",19 nM
2,"O=C(Nc1ccc(-n2ccccc2=O)cc1F)C1Cc2cccnc2N1C(=O)Nc1ccc(Cl)cc1 (stereo not drawn) [Example 16, 2,3-Dihydro-pyrrolo[2,3-b]pyridine-1,2-dicarboxylic acid 1-[(4-chloro-phenyl)-amide]2-{[2-fluoro-4-(2-oxo-2H-pyridin-1-yl)-phenyl]-amide}]",51 nM
3,"O=C(Nc1ccc(-n2ccccc2=O)cc1F)C1Cc2cccnc2CN1C(=O)Nc1ccc(Cl)cc1 (stereo not drawn) [Example 18, 5,8-Dihydro-6H-[1,7]naphthyridine-6,7-dicarboxylic acid 7-[(4-chloro-phenyl)-amide]6-{[2-fluoro-4-(2-oxo-2H-pyridin-1-yl)-phenyl]-amide}]",12 nM
